Results from ChEMBL document CHEMBL1687726, “Amphotericin B-induced renal tubular cell injury is mediated by Na+ Influx through ion-permeable pores and subsequent activation of mitogen-activated protein kinases and elevation of intracellular Ca2+ concentration” (Antimicrob Agents Chemother, 2009).
Calls of active or inactive are those of the source. No cut-off for these calls is given here.

Assays:
LLC-PK1 [1] = assay: Cytotoxicity against pig LLC-PK1 cells at 1 to 20 ug/mL after 24 hrs by WST-8 assay; type: cell-based, Sus scrofa; conditions: llc-pk1, 24 h
LLC-PK1 [2] = assay: Decrease in intracellular ATP level in pig LLC-PK1 cells after 24 hrs by HPLC/MS analysis; type: ADME, cell-based, Sus scrofa; conditions: llc-pk1, 24 h
LLC-PK1 [3] = assay: Decrease in intracellular ATP level in pig LLC-PK1 cells at 10 ug/ml after 24 hrs by HPLC/MS analysis; type: ADME, cell-based, Sus scrofa; conditions: llc-pk1, 24 h, TDE = time-dependent effect
LLC-PK1 [4] = assay: Cytotoxicity against pig LLC-PK1 cells at 15 ug/ml after 6 hrs by WST-8 assay in presence of 1 mM […] Ca2+ chelating agent EGTA; type: cell-based, Sus scrofa; conditions: llc-pk1, 6 h
LLC-PK1 [5] = assay: Cytotoxicity against pig LLC-PK1 cells at 1 to 20 ug/mL after 24 hrs by LDH leakage assay; type: cell-based, Sus scrofa; conditions: llc-pk1, 24 h
LLC-PK1 [6] = assay: Cytotoxicity against pig LLC-PK1 cells at 15 ug/ml after 6 hrs pretreated with 10 uM of ERK inhibitor PD98059 for 1 hr by WST-8 assay; type: cell-based, Sus scrofa; conditions: llc-pk1, 6 h
LLC-PK1 [7] = assay: Cytotoxicity against pig LLC-PK1 cells at 15 ug/ml after 6 hrs by WST-8 assay in presence low extracellular Na+ level (70 mM Na+); type: cell-based, Sus scrofa; conditions: llc-pk1, 6 h
LLC-PK1 [8] = assay: Cytotoxicity against pig LLC-PK1 cells at 15 ug/ml after 6 hrs pretreated for 1 hr with membrane cholesterol depletion agent methyl-beta-cyclodextrin; type: cell-based, Sus scrofa; conditions: llc-pk1, 6 h
LLC-PK1 [9] = assay: Induction of apoptosis in pig LLC-PK1 cells at 15 ug/ml after 24 hrs by TUNEL assay; type: cell-based, Sus scrofa; conditions: llc-pk1, 24 h
LLC-PK1 [10] = assay: Induction of mitochondrial membrane depolarization in pig LLC-PK1 cells at 15 ug/ml after 3 hrs pretreated with 10 uM of mitochondrial Na+ -Ca2+ exchange inhibitor CGP for 1 hr by JC-1 staining based fluorescent microscopy; type: cell-based, Sus scrofa; conditions: llc-pk1, 3 h
LLC-PK1 [11] = assay: Induction of mitochondrial membrane depolarization in pig LLC-PK1 cells at 15 ug/ml after 3 hrs pretreated with 10 uM of mitochondrial Ca2+ uniport inhibitor RR for 1 hr by JC-1 staining based fluorescent microscopy; type: cell-based, Sus scrofa; conditions: llc-pk1, 3 h
LLC-PK1 [12] = assay: Cytotoxicity against pig LLC-PK1 cells at 15 ug/ml after 6 hrs pretreated with 10 uM of JNK inhibitor 2 for 1 hr by WST-8 assay; type: cell-based, Sus scrofa; conditions: llc-pk1, 6 h
LLC-PK1 [13] = assay: Cytotoxicity against pig LLC-PK1 cells at 15 ug/ml after 6 hrs by WST-8 assay in presence of 2 uM […]; type: cell-based, Sus scrofa; conditions: llc-pk1, 6 h
LLC-PK1 [14] = assay: Induction of ERK phosphorylation in pig LLC-PK1 cells at 15 ug/ml by Western blot analysis in presence of 2 uM […]; type: cell-based; conditions: Sus scrofa
LLC-PK1 [15] = assay: Induction of mitochondrial membrane depolarization in pig LLC-PK1 cells at 15 ug/ml after 3 hrs by JC-1 staining based fluorescent microscopy; type: cell-based, Sus scrofa; conditions: llc-pk1, 3 h
LLC-PK1 [16] = assay: Cytotoxicity against pig LLC-PK1 cells at 15 ug/ml after 6 hrs pretreated with 10 uM of mitochondrial Na+ -Ca2+ exchange inhibitor CGP for 20 mins by WST-8 assay; type: cell-based, Sus scrofa; conditions: llc-pk1, 6 h
LLC-PK1 [17] = assay: Cytotoxicity against pig LLC-PK1 cells at 20 ug/mL by WST-8 assay; type: cell-based, Sus scrofa; conditions: TDE = time-dependent effect
LLC-PK1 [18] = assay: Induction of p38 phosphorylation in pig LLC-PK1 cells at 15 ug/ml by Western blot analysis; type: cell-based; conditions: Sus scrofa
LLC-PK1 [19] = assay: Cytotoxicity against pig LLC-PK1 cells at 20 ug/mL by LDH leakage assay; type: cell-based, Sus scrofa; conditions: TDE = time-dependent effect
LLC-PK1 [20] = assay: Induction of JNK phosphorylation in pig LLC-PK1 cells at 15 ug/ml by Western blot analysis in presence of 2 uM […]; type: cell-based; conditions: Sus scrofa
LLC-PK1 [21] = assay: Cytotoxicity against pig LLC-PK1 cells at 15 ug/ml after 6 hrs pretreated with 1 uM of IP3 antagonist Xesto for 20 mins by WST-8 assay; type: cell-based, Sus scrofa; conditions: llc-pk1, 6 h
LLC-PK1 [22] = assay: Cytotoxicity against pig LLC-PK1 cells at 15 ug/ml after 6 hrs pretreated with 10 uM of p38 MAPK inhibitor PD169316 for 1 hr by WST-8 assay; type: cell-based, Sus scrofa; conditions: llc-pk1, 6 h
LLC-PK1 [23] = assay: Induction of ERK phosphorylation in pig LLC-PK1 cells at 15 ug/ml by Western blot analysis; type: cell-based; conditions: Sus scrofa
LLC-PK1 [24] = assay: Induction of JNK phosphorylation in pig LLC-PK1 cells at 15 ug/ml by Western blot analysis; type: cell-based; conditions: Sus scrofa
LLC-PK1 [25] = assay: Cytotoxicity against pig LLC-PK1 cells at 15 ug/ml after 6 hrs pretreated with 10 uM of mitochondrial Ca2+ uniport inhibitor RR for 20 mins by WST-8 assay; type: cell-based, Sus scrofa; conditions: llc-pk1, 6 h
LLC-PK1 [26] = assay: Induction of p38 phosphorylation in pig LLC-PK1 cells at 15 ug/ml by Western blot analysis in presence of 2 uM […]; type: cell-based; conditions: Sus scrofa
LLC-PK1 [27] = assay: Cytotoxicity against pig LLC-PK1 cells at 15 ug/ml after 6 hrs pretreated with 30 uM of ryanodine receptor antagonist Dant for 20 mins by WST-8 assay; type: cell-based, Sus scrofa; conditions: llc-pk1, 6 h
LLC-PK1 [28] = assay: Induction of mitochondrial membrane depolarization in pig LLC-PK1 cells at 15 ug/ml after 3 hrs pretreated with 10 uM of JNK inhibitor 2 for 1 hr by JC-1 staining based fluorescent microscopy; type: cell-based, Sus scrofa; conditions: llc-pk1, 3 h
LLC-PK1 [29] = assay: Cytotoxicity against pig LLC-PK1 cells at 15 ug/ml after 6 hrs pretreated for 1 hr with membrane cholesterol depletion agent methyl-beta-cyclodextrin in presence of 4% v/v cholesterol repletion condition; type: cell-based, Sus scrofa; conditions: llc-pk1, 6 h
LLC-PK1 [30] = assay: Induction of mitochondrial membrane depolarization in pig LLC-PK1 cells at 15 ug/ml after 3 hrs pretreated with 10 uM of ERK inhibitor PD98059 for 1 hr by JC-1 staining based fluorescent microscopy; type: cell-based, Sus scrofa; conditions: llc-pk1, 3 h
LLC-PK1 [31] = assay: Cytotoxicity against pig LLC-PK1 cells at 15 ug/ml after 24 hrs by propidium iodide staining; type: cell-based, Sus scrofa; conditions: llc-pk1, 24 h

With `C[C@@H]1[C@H](O)[C@@H](C)/C=C/C=C/C=C/C=C/C=C/C=C/C=C/[C@H](O[C@@H]2O[C@H](C)[C@@H](O)[C@H](N)[C@@H]2O)C[C@@H]2O[C@](O)(C[C@@H](O)C[C@@H](O)[C@H](O)CC[C@@H](O)C[C@@H](O)CC(=O)O[C@H]1C)C[C@H](O)[C@H]2C(=O)O` [AMPHOTERICIN B] as the compound, how does the Activity (LLC-PK1 [1]) read?
Its Activity is “Dose-dependent effect”.

What about the Activity (LLC-PK1 [2]) of the same compound?
The Activity was “Dose-dependent effect”.

And the Activity (LLC-PK1 [3])?
The Activity was “tde”.

And the Activity (LLC-PK1 [4])?
Its Activity is “Non-toxic”.

What about the Activity (LLC-PK1 [5]) of the same compound?
The Activity was “Dose-dependent effect”.

And the Activity (LLC-PK1 [6])?
Its Activity is “Non-toxic”.

What about the Activity (LLC-PK1 [7]) of the same compound?
The Activity was “Non-toxic”.

And the Activity (LLC-PK1 [8])?
Its Activity is “Non-toxic”.

And the Activity (LLC-PK1 [9])?
The Activity was “Non-toxic”.

And the Activity (LLC-PK1 [10])?
Its Activity is “Toxic”.

And the Activity (LLC-PK1 [11])?
Its Activity is “Toxic”.

And the Activity (LLC-PK1 [12])?
Its Activity is “Non-toxic”.

What about the Activity (LLC-PK1 [13]) of the same compound?
The Activity was “Toxic”.

What about the Activity (LLC-PK1 [14]) of the same compound?
The Activity was “Active”.

And the Activity (LLC-PK1 [15])?
The Activity was “Toxic”.

What about the Activity (LLC-PK1 [16]) of the same compound?
The Activity was “Non-toxic”.

What about the Activity (LLC-PK1 [17]) of the same compound?
Its Activity is “tde”.

And the Activity (LLC-PK1 [18])?
The Activity was “Active”.

What about the Activity (LLC-PK1 [19]) of the same compound?
The Activity was “tde”.

What about the Activity (LLC-PK1 [20]) of the same compound?
Its Activity is “Active”.

And the Activity (LLC-PK1 [21])?
Its Activity is “Toxic”.

And the Activity (LLC-PK1 [22])?
The Activity was “Non-toxic”.

And the Activity (LLC-PK1 [23])?
The Activity was “Active”.

What about the Activity (LLC-PK1 [24]) of the same compound?
Its Activity is “Active”.

What about the Activity (LLC-PK1 [25]) of the same compound?
Its Activity is “Non-toxic”.

And the Activity (LLC-PK1 [26])?
Its Activity is “Active”.

What about the Activity (LLC-PK1 [27]) of the same compound?
The Activity was “Non-toxic”.

What about the Activity (LLC-PK1 [28]) of the same compound?
Its Activity is “Toxic”.

And the Activity (LLC-PK1 [29])?
The Activity was “Toxic”.

What about the Activity (LLC-PK1 [30]) of the same compound?
Its Activity is “Toxic”.

And the Activity (LLC-PK1 [31])?
Its Activity is “Toxic”.
